Measurements taken from ChEMBL document CHEMBL1201862, “PubChem BioAssay data set” (2004).
Active and inactive are the calls of the source.

Legend:
[1] = target: Cytochrome P450 2C19 (Homo sapiens, UniProt P33261); assay: Cytochrome panel assay with activity outcomes. Panel member name: p450-cyp2c19 Compounds with AC50 equal or less than 10 uM are considered active; format: functional; settings: read-out: AC50
[2] = luciferase reporter signal suppression in cells – H4 neuroglioma cells, luminescence, dose response (AID 1990); format: functional, cell-based
[3] = tested on: INS1; assay: INS-1E survival protection against cytokine death – cell-based, luminescence, retest, dose response (AID 449756); format: functional; settings: Rattus norvegicus;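 also: cell death triggered by IL-1 beta plus TNF-alpha plus IFN-gamma mixture; protective hits raise ATP signal compared with cytokine alone wells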
[4] = alpha-synuclein stem-loop luciferase translation blockers – H4 neuroglioma cells, luminescence, confirmation (AID 1988); format: functional, cell-based
[5] = reduction of Shn3 3'UTR-driven luciferase in osteoblasts – cell-based, Clone20 osteoblasts, firefly luciferase, cherry-picked, dose response (AID 624132); format: functional;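 also: firefly luciferase luminescence from reporter carrying the Shn3 3'UTR in osteoblasts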
[6] = non-specific 3'UTR reporter inhibition in Clone20-Shn3RL – cell-based, Renilla luciferase, cherry-picked, counter-screen for Shn3 inhibitor project, dose response (AID 624133); format: functional
[7] = Luminescence Cell-Based Dose Response HTS to Identify Inhibitors of 5'UTR Stem-Loop Driven Prion Protein mRNA Translation in H4 Neuroglioblastoma Cells. [Related pubchem assays: 1827 (Project Summary), 1813 (Primary HTS)]; format: functional
[8] = viability of HCT116 lacking mutant beta-catenin – cell-based, human colon tumor, dose response (AID 1045); format: functional;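 also: HCT116 colon tumor cells with beta catenin knocked out; cells exposed to compound for 60 hours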
[9] = target: Cytochrome P450 2C9 (Homo sapiens, UniProt P11712)
[10] = loss of viability in HepG2 cells – cell-based, CellTiter-Glo, cherry-picked, cytotoxicity control for Shn3 inhibitor project, dose response (AID 624134); format: functional
[11] = viability of PTEN-deleted HCT116 cells – cell-based, HCT116 PTEN knockout, dose response (AID 1047); format: functional;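 also: HCT116 colon tumor cells with PTEN knocked out; cells exposed to compound for 60 hours before readout; potency for loss of cell viability measured by luminescence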
[12] = target: Beta-2 adrenergic receptor (Homo sapiens, UniProt P07550); assay: ADRB2 activation measured by internalization – cell-based, FAP fluorogen, flow cytometry, cherry pick 1, dose response (AID 588763); format: functional
[13] = target: T1, Ubiquitin-conjugating enzyme E2 N (Homo sapiens, UniProt P61088); format: functional;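 also: Dose-response confirmation in a TR-FRET assay detecting UBC13-driven polyubiquitin chain formation, inhibition measured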
T1 sequence (P61088 whole entry): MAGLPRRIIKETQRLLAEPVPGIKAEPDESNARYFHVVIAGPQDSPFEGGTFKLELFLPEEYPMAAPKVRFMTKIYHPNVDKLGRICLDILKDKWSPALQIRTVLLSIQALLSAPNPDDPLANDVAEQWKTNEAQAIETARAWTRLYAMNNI

[14] = tested on: Streptococcus sp. 'group A'; assay: Streptococcus pyogenes SK(-)GAS viability under kanamycin – luminescence, BacTiterGlo, confirmation, counter-screen for streptokinase expression inhibitor project, dose response (AID 1900); format: functional, organism-based
[15] = tested on: Jurkat; assay: SAR Analysis of small molecule inhibitors of T-cell specific antigen receptor-induced NF-kB activation in a Jurkat cell line using a luminescence assay - Set 2. [Related pubchem assays (depositor defined):AID435003, AID435012, AID465]; format: functional, cell-based; settings: Homo sapiens
[16] = tested on: HEK293; assay: HEK293T cell viability loss, resazurin readout – resazurin fluorescence, cytotoxicity control for NF-kB activator project, SAR follow-up (AID 493251); format: functional, cell-based; settings: Homo sapiens
[17] = tested on: HEK293; assay: SAR Analysis of small molecule inhibitors of T-cell specific antigen receptor-induced NF-kB activation in a HEK-293T cell line using a luminescence assay - Set 2. [Related pubchem assays (depositor defined):AID435003, AID435012, AID489026]; format: functional, cell-based; settings: Homo sapiens
[18] = viability of uninfected HEp-2 cells – cell-based, HTS, cytotoxicity control for RSV inhibitor project, dose response (AID 2410); format: functional; settings: human respiratory syncytial virus
[19] = cells
[20] = A Cell Based Secondary Assay To Explore Cytotoxicity of Compounds that Sensitize Mycobacterium Tuberculosis to Beta-Lactam Antibiotics.; format: functional
[21] = target: T2, Streptokinase A (Streptococcus pyogenes serotype M1, UniProt P10520); assay: viability-normalized secreted streptokinase activity reduction – plasminogen activation absorbance, OD405, dose response (AID 1914); format: functional, Streptococcus pyogenes M1 GAS;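 also: secreted streptokinase activity via plasminogen activation per viability signal from cell pellet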
T2 sequence (P10520 whole entry): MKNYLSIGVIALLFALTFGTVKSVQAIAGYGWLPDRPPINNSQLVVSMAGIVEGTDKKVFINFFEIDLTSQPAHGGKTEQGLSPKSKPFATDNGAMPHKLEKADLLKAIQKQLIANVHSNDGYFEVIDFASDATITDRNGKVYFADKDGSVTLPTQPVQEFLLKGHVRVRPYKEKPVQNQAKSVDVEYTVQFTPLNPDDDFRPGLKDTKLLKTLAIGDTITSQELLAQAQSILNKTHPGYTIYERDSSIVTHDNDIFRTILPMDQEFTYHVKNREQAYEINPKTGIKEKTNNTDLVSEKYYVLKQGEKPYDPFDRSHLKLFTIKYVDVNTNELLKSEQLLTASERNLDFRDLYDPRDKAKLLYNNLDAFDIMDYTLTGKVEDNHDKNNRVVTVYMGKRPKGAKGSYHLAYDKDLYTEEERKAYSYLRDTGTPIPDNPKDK

[22] = tested on: Streptococcus; assay: GAS UMAA2166 growth inhibition – luminescence, BacTiterGlo, counter-screen for streptokinase expression inhibitor project, dose response (AID 1915); format: functional, organism-based;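 also: potency for reduction of bacterial viability or growth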
[23] = target: DNA topoisomerase (Yersinia pestis, UniProt A0A2S9PM60); assay: Yersinia topoisomerase I cleavage product accumulation – biochemical, cherry-pick, dose response (AID 588525)
[24] = THP-1 cell cytotoxicity, cytotoxicity control, set 4 (AID 504911); format: functional; settings: Mycobacterium tuberculosis
[25] = cells; format: functional
[26] = HepG2 cell cytotoxicity, dose response, cytotoxicity control, set 3 (AID 504853); format: functional; settings: Mycobacterium tuberculosis
[27] = HepG2 cell cytotoxicity, cytotoxicity control, set 4 (AID 504910); format: functional; settings: Mycobacterium tuberculosis
[28] = THP-1 cell cytotoxicity, dose response, cytotoxicity control, set 3 (AID 504852); format: functional; settings: Mycobacterium tuberculosis
[29] = A Cell Based Secondary Assay to Explore Cytotoxicity in THP-1 Cells of Compounds that Modulate Mycobacterium tuberculosis in Media Containing Glycerol versus Media without Glycerol (2).; format: functional
[30] = A Cell Based Secondary Assay to Explore Cytotoxicity in HepG2 Cells of Compounds that Modulate Mycobacterium tuberculosis in Media Containing Glycerol versus Media without Glycerol (2).; format: functional
[31] = Vero cell cytotoxicity, cytotoxicity control for M. tuberculosis inhibitor project, purified and synthesized samples, set 3 (AID 504684); format: functional
[32] = tested on: BJ; assay: cells; format: functional, cell-based; settings: Homo sapiens
[33] = target: T3, High affinity choline transporter 1 (Homo sapiens, UniProt Q9GZV3); assay: human choline transporter potentiators, potency – cell-based, 10-point CRC, membrane potential dye, dose response (AID 602376); format: functional
T3 sequence (Q9GZV3 whole entry): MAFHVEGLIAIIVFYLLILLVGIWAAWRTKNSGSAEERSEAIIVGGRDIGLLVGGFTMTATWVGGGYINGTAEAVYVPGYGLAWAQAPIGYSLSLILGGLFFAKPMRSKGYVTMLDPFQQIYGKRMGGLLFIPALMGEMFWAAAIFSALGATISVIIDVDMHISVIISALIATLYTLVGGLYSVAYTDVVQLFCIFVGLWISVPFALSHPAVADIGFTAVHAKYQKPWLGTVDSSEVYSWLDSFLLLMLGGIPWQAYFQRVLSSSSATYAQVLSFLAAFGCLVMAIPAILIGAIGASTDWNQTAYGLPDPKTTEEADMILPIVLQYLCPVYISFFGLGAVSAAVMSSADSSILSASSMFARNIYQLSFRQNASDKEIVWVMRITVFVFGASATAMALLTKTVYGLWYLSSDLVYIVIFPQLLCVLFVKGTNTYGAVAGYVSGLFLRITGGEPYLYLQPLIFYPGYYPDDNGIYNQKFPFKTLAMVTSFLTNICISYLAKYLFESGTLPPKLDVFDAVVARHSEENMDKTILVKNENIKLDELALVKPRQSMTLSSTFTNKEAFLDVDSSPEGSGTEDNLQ

[34] = DRD fibroblast viability loss – cell-based, non-viral oncogenic, luminescence, dose response (AID 1934); format: functional; settings: Homo sapiens
[35] = tested on: BJ; assay: BJ-TERT fibroblast viability loss – cell-based, RAS-independent, luminescence, dose response (AID 1933); format: functional; settings: Homo sapiens
[36] = tested on: BJ; assay: BJ-TERT-LT-ST fibroblast viability loss – cell-based, RAS-independent, luminescence, dose response (AID 1935); format: functional; settings: Homo sapiens;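 also: BJ fibroblasts immortalized with TERT plus LT and ST oncogenes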
[37] = HEK-293T viability loss after treatment – luminescence, T-cell screen hits, cytotoxicity control for TCR NF-kB inhibitor project, dose response (AID 489026); format: functional, cell-based;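 also: cells exposed to compound about 14 hours before the viability readout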
[38] = target: DNA dC->dU-editing enzyme APOBEC-3G (Homo sapiens, UniProt Q9HC16); assay: inhibition of APOBEC3G ssDNA deamination – biochemical, fluorescence, single-stranded DNA substrate, SAR follow-up (AID 602136); format: functional; settings: read-out: IC50_Mean
[39] = target: DNA dC->dU-editing enzyme APOBEC-3A (Homo sapiens, UniProt P31941); assay: SAR analysis of small molecule inhibitors of APOBEC3A DNA Deaminase via a fluorescence-based single-stranded DNA deaminase assay.; format: functional; settings: read-out: IC50_Mean
[40] = tested on: H4; assay: inhibitors of control reporter signal in H4 cells – cell-based, plate reader, dry powder samples, counter-screen for prion reporter project, dose response (AID 540255); format: functional; settings: Homo sapiens
[41] = target: Luciferin 4-monooxygenase (Photinus pyralis, UniProt P08659); assay: inhibition of purified Photinus pyralis luciferase – biochemical, dry powder samples, plate reader, dose response (AID 588451)
[42] = tested on: H4; assay: Amyloid Precursor 5' UTR neuroblastoma cell reporter line Measured in Cell-Based System Using Plate Reader - 2078-04_Inhibitor_Dose_DryPowder_Activity. [Related pubchem assays (depositor defined):AID488894]; format: functional; settings: Homo sapiens
[43] = tested on: H4; assay: Inhibitors of Prion Protein 5' UTR mRNA Measured in Cell-Based System Using Plate Reader - 2078-01_Inhibitor_Dose_DryPowder_Activity. [Related pubchem assays (depositor defined):AID488894]; format: functional; settings: Homo sapiens
[44] = target: Protein disulfide-isomerase (Homo sapiens, UniProt P07237); assay: inhibition of PDI-driven insulin aggregation – biochemical, turbidity, absorbance, cherry-picked samples, dose response (AID 602350); format: functional
[45] = target: Serine/threonine-protein kinase pim-1 (Homo sapiens, UniProt P11309); format: functional
[46] = target: Serine/threonine-protein kinase pim-3 (Homo sapiens, UniProt Q86V86); format: functional;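 also: value obtained as one member of a broad kinase panel profiling effort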
[47] = target: Dual specificity protein kinase CLK4 (Homo sapiens, UniProt Q9HAZ1); format: functional
[48] = target: Phospholipase A2 (Homo sapiens, UniProt P04054); format: functional;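 also: confirmatory dose-response counterscreen on phospholipase A2, testing hits that came from an ultra-high-throughput screen for ATG4B inhibitors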
[49] = target: Cysteine protease ATG4B (Homo sapiens, UniProt Q9Y4P1); format: functional;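 also: Fluorescence-based dose-response confirmation assay measuring inhibition of ATG4B activity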
Cysteine protease ATG4B, sequence (Q9Y4P1 whole entry): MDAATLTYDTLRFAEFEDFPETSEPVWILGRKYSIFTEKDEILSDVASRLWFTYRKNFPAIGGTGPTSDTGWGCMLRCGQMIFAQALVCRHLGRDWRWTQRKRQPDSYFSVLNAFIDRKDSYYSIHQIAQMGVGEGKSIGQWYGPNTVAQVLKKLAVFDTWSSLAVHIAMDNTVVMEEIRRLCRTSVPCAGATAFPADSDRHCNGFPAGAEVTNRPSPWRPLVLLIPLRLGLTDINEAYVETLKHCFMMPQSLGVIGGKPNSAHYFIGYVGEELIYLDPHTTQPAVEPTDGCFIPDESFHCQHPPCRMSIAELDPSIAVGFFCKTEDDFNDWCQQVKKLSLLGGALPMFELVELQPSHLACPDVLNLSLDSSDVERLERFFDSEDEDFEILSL

DNA dC->dU-editing enzyme APOBEC-3A, sequence (P31941 whole entry): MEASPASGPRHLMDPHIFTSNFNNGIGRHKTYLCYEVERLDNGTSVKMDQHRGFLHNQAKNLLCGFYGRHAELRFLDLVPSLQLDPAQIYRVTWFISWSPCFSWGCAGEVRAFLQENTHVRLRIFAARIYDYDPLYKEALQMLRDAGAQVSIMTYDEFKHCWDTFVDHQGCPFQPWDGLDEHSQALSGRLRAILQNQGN
Beta-2 adrenergic receptor, sequence (P07550 whole entry): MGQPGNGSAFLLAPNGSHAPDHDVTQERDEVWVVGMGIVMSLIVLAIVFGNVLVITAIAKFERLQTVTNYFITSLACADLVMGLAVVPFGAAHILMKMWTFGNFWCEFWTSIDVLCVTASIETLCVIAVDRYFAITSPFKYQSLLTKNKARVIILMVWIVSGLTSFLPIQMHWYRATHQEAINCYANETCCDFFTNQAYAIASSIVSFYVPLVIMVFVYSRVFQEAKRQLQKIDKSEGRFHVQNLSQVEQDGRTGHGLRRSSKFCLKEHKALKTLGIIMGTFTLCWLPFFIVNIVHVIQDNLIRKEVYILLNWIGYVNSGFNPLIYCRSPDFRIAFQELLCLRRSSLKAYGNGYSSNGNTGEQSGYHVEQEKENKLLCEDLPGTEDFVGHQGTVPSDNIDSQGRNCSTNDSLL
Dual specificity protein kinase CLK4, sequence (Q9HAZ1 whole entry): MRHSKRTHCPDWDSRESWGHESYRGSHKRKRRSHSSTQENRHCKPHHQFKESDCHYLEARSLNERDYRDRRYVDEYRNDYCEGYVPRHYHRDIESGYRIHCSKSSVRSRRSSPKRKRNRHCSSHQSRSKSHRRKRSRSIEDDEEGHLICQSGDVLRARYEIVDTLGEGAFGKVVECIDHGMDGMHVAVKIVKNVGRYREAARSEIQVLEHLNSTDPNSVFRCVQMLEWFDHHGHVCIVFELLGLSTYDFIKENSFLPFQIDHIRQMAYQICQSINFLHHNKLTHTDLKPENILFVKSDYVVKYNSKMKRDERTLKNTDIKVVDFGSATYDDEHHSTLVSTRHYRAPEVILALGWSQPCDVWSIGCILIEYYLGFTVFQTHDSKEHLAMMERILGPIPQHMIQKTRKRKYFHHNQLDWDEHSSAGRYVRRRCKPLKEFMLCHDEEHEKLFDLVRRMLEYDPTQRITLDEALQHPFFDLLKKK
Phospholipase A2, sequence (P04054 whole entry): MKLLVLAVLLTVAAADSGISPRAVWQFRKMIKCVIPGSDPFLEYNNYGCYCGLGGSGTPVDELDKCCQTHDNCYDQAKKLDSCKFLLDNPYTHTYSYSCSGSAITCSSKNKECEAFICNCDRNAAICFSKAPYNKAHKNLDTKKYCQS
Cytochrome P450 2C9, sequence (P11712 whole entry): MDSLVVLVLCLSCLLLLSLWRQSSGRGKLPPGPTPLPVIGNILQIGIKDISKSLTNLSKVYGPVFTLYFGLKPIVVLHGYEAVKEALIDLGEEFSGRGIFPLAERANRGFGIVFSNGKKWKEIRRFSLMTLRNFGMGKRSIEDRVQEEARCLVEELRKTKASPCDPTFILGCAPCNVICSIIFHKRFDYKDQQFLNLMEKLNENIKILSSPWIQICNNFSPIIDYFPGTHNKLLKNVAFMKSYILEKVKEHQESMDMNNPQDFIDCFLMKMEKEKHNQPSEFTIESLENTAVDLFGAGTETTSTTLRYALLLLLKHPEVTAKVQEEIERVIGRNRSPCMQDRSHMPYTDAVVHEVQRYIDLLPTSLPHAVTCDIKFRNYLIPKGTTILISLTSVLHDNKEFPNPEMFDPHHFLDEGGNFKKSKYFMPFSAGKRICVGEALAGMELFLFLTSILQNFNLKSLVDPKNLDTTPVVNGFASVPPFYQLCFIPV
DNA dC->dU-editing enzyme APOBEC-3G, sequence (Q9HC16 whole entry): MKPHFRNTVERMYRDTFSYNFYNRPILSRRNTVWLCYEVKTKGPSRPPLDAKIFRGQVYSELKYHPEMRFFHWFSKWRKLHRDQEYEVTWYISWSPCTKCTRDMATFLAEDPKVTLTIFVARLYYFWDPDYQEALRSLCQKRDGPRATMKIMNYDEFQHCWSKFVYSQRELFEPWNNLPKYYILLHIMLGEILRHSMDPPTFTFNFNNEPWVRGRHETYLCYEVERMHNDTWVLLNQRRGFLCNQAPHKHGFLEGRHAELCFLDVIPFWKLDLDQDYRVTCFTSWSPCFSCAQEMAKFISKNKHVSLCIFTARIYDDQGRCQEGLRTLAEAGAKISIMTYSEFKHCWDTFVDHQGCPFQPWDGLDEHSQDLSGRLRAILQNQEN
DNA topoisomerase, sequence (A0A2S9PM60 whole entry): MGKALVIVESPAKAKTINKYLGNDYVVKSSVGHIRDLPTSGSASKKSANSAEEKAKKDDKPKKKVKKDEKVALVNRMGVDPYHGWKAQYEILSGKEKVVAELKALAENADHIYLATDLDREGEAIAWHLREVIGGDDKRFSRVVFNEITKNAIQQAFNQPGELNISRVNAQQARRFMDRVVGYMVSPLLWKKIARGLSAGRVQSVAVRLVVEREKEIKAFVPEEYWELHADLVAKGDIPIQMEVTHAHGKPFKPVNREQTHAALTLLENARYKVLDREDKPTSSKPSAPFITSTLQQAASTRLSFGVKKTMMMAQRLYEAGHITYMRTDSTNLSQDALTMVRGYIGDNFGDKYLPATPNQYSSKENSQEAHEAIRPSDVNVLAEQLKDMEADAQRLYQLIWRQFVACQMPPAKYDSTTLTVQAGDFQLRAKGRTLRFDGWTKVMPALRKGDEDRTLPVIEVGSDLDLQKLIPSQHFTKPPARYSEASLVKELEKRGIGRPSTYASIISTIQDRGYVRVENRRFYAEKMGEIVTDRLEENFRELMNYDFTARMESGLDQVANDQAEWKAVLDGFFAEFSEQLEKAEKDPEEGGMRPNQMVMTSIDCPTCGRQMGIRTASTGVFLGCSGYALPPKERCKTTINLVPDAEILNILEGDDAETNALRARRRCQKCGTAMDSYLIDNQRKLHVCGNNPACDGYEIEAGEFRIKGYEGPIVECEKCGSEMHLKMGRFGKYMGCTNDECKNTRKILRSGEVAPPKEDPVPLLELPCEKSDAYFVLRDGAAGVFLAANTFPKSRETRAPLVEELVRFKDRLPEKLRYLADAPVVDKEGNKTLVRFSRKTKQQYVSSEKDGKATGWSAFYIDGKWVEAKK
Cytochrome P450 2C19, sequence (P33261 whole entry): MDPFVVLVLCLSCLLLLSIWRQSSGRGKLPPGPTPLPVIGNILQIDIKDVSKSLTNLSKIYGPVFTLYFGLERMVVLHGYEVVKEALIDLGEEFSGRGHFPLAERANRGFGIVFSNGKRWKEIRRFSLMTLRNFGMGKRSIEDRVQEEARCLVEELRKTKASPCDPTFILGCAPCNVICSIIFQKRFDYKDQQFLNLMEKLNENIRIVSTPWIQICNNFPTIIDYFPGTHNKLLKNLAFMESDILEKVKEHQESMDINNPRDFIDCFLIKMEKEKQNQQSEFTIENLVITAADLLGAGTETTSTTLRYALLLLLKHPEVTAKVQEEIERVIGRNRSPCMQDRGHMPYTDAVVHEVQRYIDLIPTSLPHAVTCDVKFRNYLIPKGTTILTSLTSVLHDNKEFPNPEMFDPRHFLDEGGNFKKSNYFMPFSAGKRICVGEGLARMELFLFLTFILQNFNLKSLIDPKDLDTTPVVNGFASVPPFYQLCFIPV
Luciferin 4-monooxygenase, sequence (P08659 whole entry): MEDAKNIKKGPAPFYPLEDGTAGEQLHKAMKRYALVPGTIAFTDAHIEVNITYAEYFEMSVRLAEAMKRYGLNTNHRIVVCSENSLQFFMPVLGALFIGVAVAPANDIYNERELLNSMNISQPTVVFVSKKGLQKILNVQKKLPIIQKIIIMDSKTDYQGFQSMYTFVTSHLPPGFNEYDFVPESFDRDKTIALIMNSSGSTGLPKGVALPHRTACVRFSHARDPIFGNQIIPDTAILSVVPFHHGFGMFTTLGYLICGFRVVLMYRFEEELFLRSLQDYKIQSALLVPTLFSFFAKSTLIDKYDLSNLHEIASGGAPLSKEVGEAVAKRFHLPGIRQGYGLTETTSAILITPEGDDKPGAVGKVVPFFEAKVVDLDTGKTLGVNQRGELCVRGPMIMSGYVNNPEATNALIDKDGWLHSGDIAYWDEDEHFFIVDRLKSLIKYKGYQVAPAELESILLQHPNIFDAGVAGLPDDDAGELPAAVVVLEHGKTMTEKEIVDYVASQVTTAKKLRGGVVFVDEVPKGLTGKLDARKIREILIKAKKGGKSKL

## CCOc1cc(CNCCc2ccc(S(N)(=O)=O)cc2)ccc1OCc1ccc(Cl)cc1
[1]
  AC50: 17.8 µM (inconclusive)
[2]
  EC50: 9.07 µM (active)
[3]
  AC50: 4.78 µM (active)
[4]
  EC50: 59.1 µM (active)
[5]
  AC50: 3.87 µM (active)
[6]
  AC50: 4.75 µM (active)
[7]
  EC50: > 120 µM (not active)
[8]
  EC50: 3.56 µM (active)
[9]
  AC50: 11.2 µM (inconclusive)
[10]
  AC50: 9.14 µM (active)
[11]
  EC50: 8.2 µM (active)
[12]
  EC50: 16.1 µM (inactive)
[13]
  IC50: > 20 µM (inactive)

## Cc1cc(NC(=O)c2ccc3c(c2)OCCO3)ccc1NC(=O)c1cc2ccccc2o1
[14]
  EC50: 14 µM (active)
[15]
  IC50: 38.6 µM (inactive)
[16]
  IC50: 8.04 µM (active)
[17]
  IC50: 8.84 µM (active)
[18]
  CC50: 18.2 µM (active)
[19]
  IC50: 7.55 µM (active)
[20]
  CC50: > 40 µM (active)
[21]
  EC50: > 150 µM (not active)
[22]
  EC50: 14.9 µM (active)

## CC(=O)c1cccc(NC(=O)CCc2nnc3ccc(NCc4ccc5c(c4)OCO5)nn23)c1
[23]
  AC50: 7.46 µM (active)

## Nc1c(C(=O)NC2CCCCC2)nsc1C(=O)OCC(=O)NC1CCCCC1
[24]
  CC50: > 100 µM (active)
[25]
  IC50: 1.88 µM (active)
[26]
  CC50: > 50 µM (active)
[27]
  CC50: > 50 µM (active)
[28]
  CC50: > 100 µM (active)
[29]
  CC50: > 100 µM (active)
[30]
  CC50: > 50 µM (active)
[31]
  CC50: > 100 µM (active)

## COc1ccc(OC)c(NS(=O)(=O)c2ccc(N3CCCC3=O)cc2)c1
[32]
  EC50: 27.9 µM (inconclusive)
[2]
  EC50: 3.37 µM (active)
[33]
  EC50: 22.1 µM (active)
[4]
  EC50: 0.247 µM (active)
[7]
  EC50: 7.75 µM (active)
[34]
  EC50: 0.463 µM (active)
[35]
  EC50: 0.812 µM (active)
[36]
  EC50: 1.26 µM (inconclusive)
[37]
  IC50: > 80 µM (inactive)

## CC(=O)c1c(C)[nH]c(C(=O)CN(C)CC(=O)Nc2ccccc2Cl)c1C
[38]
  IC50: > 99 µM (inactive)
[39]
  IC50: > 99 µM (inactive)

## CC1CCCCN1c1ncnc2c1cnn2-c1ccc(Cl)cc1 (configuration not stated)
[40]
  AC50: 0.074 µM (active)
[41]
  AC50: 4.19 µM (active)
[42]
  AC50: 0.00838 µM (active)
[43]
  AC50: 0.018 µM (active)

## Cc1noc(C)c1S(=O)(=O)Nc1ccc2c(c1)CC(=O)N([C@H](C)CO)C[C@H](C)[C@H](CN(C)S(=O)(=O)c1ccccc1)O2
[44]
  AC50: 19.5 µM (active)

## O=c1[nH]cnc2c(-c3ccccc3)c(C(F)(F)F)sc12
[45]
  Ki: 1.26 µM (active)
[46]
  Ki: 2.51 µM (active)
[47]
  Ki: 2 µM (active)

## O=C(CC1SC(N/N=C/c2cccs2)=NC1=O)Nc1ccc(Cl)c(Cl)c1 (configuration not stated)
[48]
  IC50: 4.25 µM (active)
[49]
  IC50: 13.8 µM (active)
